Measured values reported in US20020077317A1, “Method of potentating the action of 2-methoxyoestradiol, statins and C-peptide of proinsulin” (priority 2000, published 2002).
pIC50: −log10 of the molar value.

Columns and labels:
[1] = biological target: delta-6-desaturase (Homo sapiens, UniProt O95864); assay: delta-6-desaturase activity; format: biochemical
Text: (§1) Essential fatty acids are precursors of eicosanoids and are important structural components of cell membranes. They also provide the substrates for the generation of lipid peroxidation products which have an inhibitory action on cell proliferation. Tumor cells are known to have low delta-6-desaturase activity, an enzyme necessary for the desaturation of dietary linoleic acid (LA, 18:2, n-6) and alpha-linolenic acid (ALA, 18:3, n-3) to their respective products. […] This selective tumoricidal action of fatty acids seems to be mediated by free radicals and lipid peroxides.

[2] = biological target: delta-5-desaturase (Homo sapiens, UniProt O60427); assay: delta-5-desaturase activity; format: biochemical
Text: as §1

[3] = system: endothelial cells; settings: read-out: half-maximal inhibitory concentration (IC50); cited from earlier work
[4] = system: p53 protein; settings: cited from earlier work
[5] = system: solid tumors; settings: cited from earlier work
[6] = system: breast cancer cells, MCF-7; settings: cited from earlier work
[7] = system: Chinese Hamster V79 cells; settings: in culture; cited from earlier work
[8] = system: SOD (superoxide dismutase); settings: cited from earlier work
[9] = system: normal human skin fibroblasts; settings: at 100 micro M concentration; cited from earlier work
[10] = system: TNF resistant L-929 tumor cells; assay: TNF resistant L-929 tumor cells in vitro; format: cell-based; settings: for killing of TNF resistant L-929 tumor cells: in vitro; for sensitisation of TNF-resistant L-929 cells to TNF: prior treatment with fatty acid
[11] = system: normal and tumor cells grown together; assay: mixed culture of normal and tumor cells; format: cell-based
Text: (§2) Tumor cells are not only deficient in PUFAs but also have low rate(s) of lipid peroxidation and low amounts of superoxide dismutase (SOD), and contain relatively large amounts of antioxidants such as vitamin E. It is also believed that low rates of lipid peroxidation and consequent low amounts of lipid peroxides in the cells can contribute to an increase in the mitotic process which ultimately leads to an increase in cell proliferation. Thus, a deficiency of PUFAs, high amounts of antioxidants and the presence of low amounts of lipid peroxides in the tumor cells can contribute to the growth of tumor cells.

[12] = system: ascitic tumor cells; assay: ascitic tumor cells in the peritoneum; format: in vivo; settings: experimental animals; pure fatty acid or fatty acid rich oils
[13] = system: tumor cells and normal cells; assay: PUFAs on tumor cells and normal cells in vitro; format: cell-based; settings: for killing of tumor cells versus normal cells: in vitro
Text: as §2, §1

[14] = system: hepatoma; assay: hepatoma in rats; format: in vivo; settings: pure fatty acid or fatty acid rich oils
[15] = system: skin papilloma; assay: skin papilloma in mice; format: in vivo; settings: pure fatty acid or fatty acid rich oils
[16] = system: KB-Ch^R-8-5; assay: vincristine resistant KB-ChR-8-5 tumor cells; format: cell-based
[17] = system: tumor cells; assay: PUFA potentiation of anti-cancer drugs in tumor cells; format: cell-based; settings: for cytotoxic action of doxorubicin, vincristine and cis-platinum: fatty acid added to anti-cancer drug
[18] = system: bone marrow cells; assay: side effects of anti-cancer agents on mouse bone marrow cells; format: in vivo; settings: mice
Text: […], it is desirable that PUFAs should be delivered to the patients in such a manner that they are easily available to the tumor cells and are delivered selectively to the tumor cells.

[19] = system: endothelial cell; settings: cited from earlier work
[20] = system: primary and metastatic tumors; settings: experimental animals; cited from earlier work
[21] = system: bovine capillary endothelial cells; settings: in vitro; cited from earlier work
[22] = system: subcutaneous hemangioendothelioma; settings: mice with hemangioendothelioma and disseminated intravascular coagulopathy; cited from earlier work
[23] = system: proliferating endothelial cells; settings: cited from earlier work
[24] = system: free radical generation and lipid peroxidation; settings: cited from earlier work
[25] = proliferating endothelial cells

Sequence of delta-5-desaturase (O60427 whole entry, species assumed): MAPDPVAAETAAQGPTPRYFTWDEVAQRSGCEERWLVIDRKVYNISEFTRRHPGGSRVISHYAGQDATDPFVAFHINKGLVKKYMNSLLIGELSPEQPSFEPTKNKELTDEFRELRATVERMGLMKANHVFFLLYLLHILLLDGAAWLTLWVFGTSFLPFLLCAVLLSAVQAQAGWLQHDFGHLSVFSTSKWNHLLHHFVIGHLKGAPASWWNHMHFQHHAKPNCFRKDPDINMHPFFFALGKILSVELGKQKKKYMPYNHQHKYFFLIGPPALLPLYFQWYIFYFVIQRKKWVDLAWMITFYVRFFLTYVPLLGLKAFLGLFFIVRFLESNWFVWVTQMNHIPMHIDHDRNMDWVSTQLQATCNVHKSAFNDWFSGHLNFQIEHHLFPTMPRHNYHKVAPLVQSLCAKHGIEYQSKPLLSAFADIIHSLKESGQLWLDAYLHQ
Sequence of delta-6-desaturase (O95864 whole entry, species assumed): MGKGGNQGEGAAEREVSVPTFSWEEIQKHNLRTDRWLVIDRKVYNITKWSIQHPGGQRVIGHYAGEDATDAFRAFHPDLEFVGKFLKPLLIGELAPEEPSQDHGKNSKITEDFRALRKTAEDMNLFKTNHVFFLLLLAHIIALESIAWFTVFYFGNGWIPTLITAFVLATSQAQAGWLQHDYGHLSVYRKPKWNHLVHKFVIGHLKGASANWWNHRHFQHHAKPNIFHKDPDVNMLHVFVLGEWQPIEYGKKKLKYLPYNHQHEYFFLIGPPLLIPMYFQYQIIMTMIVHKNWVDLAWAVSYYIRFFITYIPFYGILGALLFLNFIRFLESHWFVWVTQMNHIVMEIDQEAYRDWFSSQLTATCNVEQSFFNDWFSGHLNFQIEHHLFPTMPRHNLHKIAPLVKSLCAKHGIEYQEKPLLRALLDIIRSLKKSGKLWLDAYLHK

Which “activity of delta-6-desaturase” value [1] does the source give for CC(=O)Nc1ccc2c(c1)Cc1ccccc1-2 [2-AAF, 2-acetylaminofluorine] here?
The value was “can suppress the activity”.

What about the “activity of delta-5-desaturase” value [2] of the same compound?
The value was “can suppress the activity”.

With COc1cc2c(cc1O)CC[C@@H]1[C@@H]2CC[C@]2(C)[C@@H](O)CC[C@@H]12 [2-ME, 2-methoxyoestradiol] as the compound, how does the pIC50 [3] read?
The pIC50 was 6.82.

What about the “accumulation of p53 protein” value [4] of the same compound?
The value was “induce the accumulation of p53 protein”.

What about the general toxicity ([5]; in vivo) of the same compound?
The general toxicity was “not associated with general toxicity”.

And the “capillary formation in and growth of solid tumors” value ([5]; oral administration, mice)?
The value was “inhibit capillary formation in solid tumors and reduce their growth”.

And the “action on MCF-7 cells” value [6]?
Its value is “cytotoxic action”.

What about the “growth of Chinese Hamster V79 cells” value [7] of the same compound?
Its value is “suppres the growth”.

And the “binding to SOD” value [8]?
Its value is “able to bind to SOD”.

What about the “effect on normal human skin fibroblasts” value [9] of the same compound?
Its value is “no effect”.

For CCCCC/C=C\C/C=C\C/C=C\C/C=C\CCCC(=O)O [AA, arachidonic acid], which “killing of TNF resistant L-929 tumor cells” value [10] is on record?
The value was “able to kill”.

What about the “sensitisation of TNF-resistant L-929 cells to TNF” value [10] of the same compound?
Its value is “rendered TNF sensitive”.

What about the “selective tumoricidal action in mixed culture” value [11] of the same compound?
The value was “effective to some extent”.

What about the “growth of ascitic tumor cells in the peritoneum” value [12] of the same compound?
Its value is “inhibit the growth”.

And the tumor cell proliferation [13]?
Its tumor cell proliferation is “decrease tumor cell proliferation”.

What about the “killing of tumor cells versus normal cells” value [13] of the same compound?
The value was “only tumor cells are killed”.

And the “formation and growth of hepatoma” value [14]?
Its value is “inhibit the growth”.

What about the “growth of skin papilloma” value [15] of the same compound?
Its value is “inhibit the growth”.

And the “sensitisation of vincristine resistant cells to vincristine” value [16]?
Its value is “made sensitive to the cytotoxic action of vincristine”.

And the “cellular uptake of anti-cancer drugs by tumor cells” value [17]?
Its value is “enhance the cellular uptake”.

What about the “cytotoxic action of doxorubicin, vincristine and cis-platinum” value (“cytotoxic action of doxorubicin” for short) [17] of the same compound?
The value was “can be augmented”.

Which “killing of tumor cells versus normal cells” value [13] does the source give for CC/C=C\C/C=C\C/C=C\CCCCCCCC(=O)O [ALA, alpha-linolenic acid] here?
Its value is “only tumor cells are killed”.

With CCN(CC)N=O [DEN, diethylnitrosamine] as the compound, how does the “activity of delta-6-desaturase” value [1] read?
The value was “can suppress the activity”.

What about the “activity of delta-5-desaturase” value [2] of the same compound?
The value was “can suppress the activity”.

What does the source list for CCCCC/C=C\C/C=C\C/C=C\CCCCCCC(=O)O [DGLA, dihomo-GLA]?
killing of TNF resistant L-929 tumor cells [10]: able to kill; sensitisation of TNF-resistant L-929 cells to TNF [10]: rendered TNF sensitive; growth of ascitic tumor cells in the peritoneum [12]: inhibit the growth; tumor cell proliferation [13]: decrease tumor cell proliferation; killing of tumor cells versus normal cells [13]: only tumor cells are killed; formation and growth of hepatoma [14]: inhibit the growth; growth of skin papilloma [15]: inhibit the growth; side effects of gamma-radiation and cis-platinum to bone marrow cells [18]: prevent or ameliorate the side effects; sensitisation of vincristine resistant cells to vincristine [16]: made sensitive to the cytotoxic action of vincristine; cellular uptake of anti-cancer drugs by tumor cells [17]: enhance the cellular uptake; cytotoxic action of doxorubicin, vincristine and cis-platinum [17]: can be augmented

Which “cytotoxic action of doxorubicin” value [17] does the source give for CC/C=C\C/C=C\C/C=C\C/C=C\C/C=C\C/C=C\CCC(=O)O [DHA, docosahexaenoic acid] here?
Its value is “can be augmented”.

For CC/C=C\C/C=C\C/C=C\C/C=C\C/C=C\CCCC(=O)O [EPA, eicosapentaenoic acid], which “side effects of gamma-radiation and cis-platinum to bone marrow cells” value [18] is on record?
Its value is “prevent or ameliorate the side effects”.

And the “cytotoxic action of doxorubicin” value [17]?
Its value is “can be augmented”.

Which “killing of TNF resistant L-929 tumor cells” value [10] does the source give for CCCCC/C=C\C/C=C\C/C=C\CCCCC(=O)O [GLA, gamma-linolenic acid] here?
Its value is “able to kill”.

And the “growth of ascitic tumor cells in the peritoneum” value [12]?
The value was “inhibit the growth”.

And the tumor cell proliferation [13]?
The tumor cell proliferation was “decrease tumor cell proliferation”.

And the “killing of tumor cells versus normal cells” value [13]?
The value was “only tumor cells are killed”.

What about the “formation and growth of hepatoma” value [14] of the same compound?
Its value is “inhibit the growth”.

And the “side effects of gamma-radiation and cis-platinum to bone marrow cells” value [18]?
Its value is “prevent or ameliorate the side effects”.

What about the “cellular uptake of anti-cancer drugs by tumor cells” value [17] of the same compound?
Its value is “enhance the cellular uptake”.

What about the “cytotoxic action of doxorubicin” value [17] of the same compound?
The value was “can be augmented”.

With CCCCC/C=C\C/C=C\CCCCCCCC(=O)O [LA, linoleic acid] as the compound, how does the “killing of tumor cells versus normal cells” value [13] read?
Its value is “only tumor cells are killed”.

Which “killing of tumor cells versus normal cells” value [13] does the source give for CC\C=C/C=C/C=C/C=C\CCCCCCCC(=O)O [cis-parinaric acid] here?
Its value is “only tumor cells are killed”.

Which “endothelial cell proliferation and angiogenesis” value [19] does the source give for Endostatin® here?
Its value is “specifically inhibit endothelial cell proliferation and angiogenesis”.

What about the “primary and metastatic tumors” value [20] of the same compound?
Its value is “dramatic reduction of primary and metastatic tumors”.

With angiostatin® as the compound, how does the “proliferation/growth of bovine capillary endothelial cells” value [21] read?
The value was “inhibit the growth of bovine capillary endothelial cells”.

What about the “size of the tumor” value [22] of the same compound?
Its value is “significant reduction in the size of the tumor”.

And the survival [22]?
The survival was “increased survival”.

And the cell cycle progression [23]?
Its cell cycle progression is “did not alter cell cycle progression significantly”.

What about the adhesion activity [23, 25] of the same compound?
The adhesion activity was “enhanced the adhesion activity”.

And the “change in expression of E-selectin” value [23, 25]?
Its value is 4 to 5 fold.

Which “free radical generation and lipid peroxidation generated by GLA, EPA and DHA” value [24] does the source give for superoxide dismutase here?
The value was “completely inhibit free radical generation and lipid peroxidation”.

For vitamin E, which “free radical generation and lipid peroxidation generated by GLA, EPA and DHA” value [24] is on record?
Its value is “completely inhibit free radical generation and lipid peroxidation”.
